Data: PMC6471201, “Discovery of Indoleamine 2,3-Dioxygenase 1 (IDO-1) Inhibitors Based on Ortho-Naphthaquinone-Containing Natural Product” (Molecules, 2019)

Columns and labels:
[1] = test system: IDO-1; design: method as in PMID 30108982; conditions: known inhibitors, Figure 1; cited from earlier work
[2] = target: T1, hIDO-1 (Homo sapiens, UniProt P14902); assay: hIDO-1 enzymatic assay; format: biochemical; conditions: mean ± SE of two independent experiments; for inhibition at 20 µM: 20 µM compound, read-out: Inhibitory Rate at 20 µM (enzymatic); for IC50: rhIDO-1, L-tryptophan substrate, 37 °C 30 min
[3] = target: T1, hIDO-1; assay: Cell-based assay of IDO-1 activity in HEK 293 cells transfected with pcDNA3.1-hIDO-1; design: expressed in transfected cells; host or cells: HEK 293; conditions: HEK 293-hIDO-1 cells, 12-h incubation; mean ± SE of two independent experiments; read-out: Cellular IC50

T1 sequence (P14902 whole entry): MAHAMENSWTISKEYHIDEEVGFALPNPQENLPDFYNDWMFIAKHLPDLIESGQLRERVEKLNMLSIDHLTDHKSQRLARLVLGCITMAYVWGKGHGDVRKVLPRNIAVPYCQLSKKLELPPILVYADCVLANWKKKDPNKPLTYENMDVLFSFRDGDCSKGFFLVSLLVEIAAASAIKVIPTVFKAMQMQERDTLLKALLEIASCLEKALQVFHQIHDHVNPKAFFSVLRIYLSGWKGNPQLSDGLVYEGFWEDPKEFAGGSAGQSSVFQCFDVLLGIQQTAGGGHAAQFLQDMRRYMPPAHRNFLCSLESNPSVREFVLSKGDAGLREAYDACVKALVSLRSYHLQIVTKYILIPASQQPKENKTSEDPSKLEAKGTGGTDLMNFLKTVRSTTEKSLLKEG

inhibition at 20 µM [2] | IC50 [2] | Compound | other results
 | 4.72 ± 0.3 µM | CCC(=O)OC1CCC(C)(C)c2ccc3c(c21)C(=O)C(=O)c1c(C)coc1-3 (centres unmarked) [Compound 7b] | 
29.3 ± 2.2% |  | CCC(=O)OC1CCC(C)(C)c2ccc3c(c21)C(=O)C(=O)c1c-3oc(-c2ccsc2)c1C (centres unmarked) [Compound 7c] | 
21.5 ± 1.1% |  | CCC(=O)OC1CCC(C)(C)c2ccc3c(c21)C(=O)C(=O)c1c-3oc(-c2ccccc2)c1C (centres unmarked) [Compound 7d] | 
 | 7.47 ± 3.58 µM | CCOC(=O)/C=C/C(=O)OC1CCC(C)(C)c2ccc3c(c21)C(=O)C(=O)c1c(C)coc1-3 (centres unmarked) [Compound 7e] | 
 | 2.74 ± 0.1 µM | Cc1coc2c1C(=O)C(=O)c1c-2ccc2c1C(OC(=O)CO)CCC2(C)C (centres unmarked) [Compound 7f] | 
 | 7.05 ± 2.46 µM | Cc1coc2c1C(=O)C(=O)c1c-2ccc2c1C(OC(=O)C1CC1)CCC2(C)C (centres unmarked) [Compound 7g] | 
48 ± 3.2% |  | Cc1coc2c1C(=O)C(=O)c1c-2ccc2c1C(OC(=O)C1CCCCC1)CCC2(C)C (centres unmarked) [Compound 7h] | 
54.5 ± 2.3% |  | Cc1coc2c1C(=O)C(=O)c1c-2ccc2c1C(OC(=O)c1ccccc1)CCC2(C)C (centres unmarked) [Compound 7i] | 
60.4 ± 3.9% |  | Cc1coc2c1C(=O)C(=O)c1c-2ccc2c1C(OC(=O)c1cccs1)CCC2(C)C (centres unmarked) [Compound 7j] | 
 | 4.6 ± 2.81 µM | Cc1coc2c1C(=O)C(=O)c1c-2ccc2c1C(OC(=O)c1ccoc1)CCC2(C)C (centres unmarked) [Compound 7k] | 
 | 5.71 ± 0.47 µM | Cc1coc2c1C(=O)C(=O)c1c-2ccc2c1C(OC(=O)c1nccs1)CCC2(C)C (centres unmarked) [Compound 7l] | 
 | 4.96 ± 2.02 µM | Cc1coc2c1C(=O)C(=O)c1c-2ccc2c1C(OC(=O)c1cnccn1)CCC2(C)C (centres unmarked) [Compound 7m] | 

Second part, the molecule before the results:

Compound | inhibition at 20 µM [2] | IC50 [2] | other results
Cc1cccc2c3c(ccc12)C1=C(C(=O)C3=O)C(C)CO1 (centres unmarked) [Compound 4] |  |  | IC50 [1]: 1.3 µM
Cc1c(-c2c(C)c(O)c3ccccc3c2O)oc2c1C(=O)C(=O)c1c-2ccc2c1CCCC2(C)C [Compound 5] |  |  | IC50 [1]: 4.1 µM
Cc1coc2c1C(=O)C(=O)c1c-2ccc2c1CCCC2(C)C [Compound 6, Tan-IIA, reference compound] | 23.1 ± 1.6% | > 20 µM | 
CC(=O)OC1CCC(C)(C)c2ccc3c(c21)C(=O)C(=O)c1c(C)coc1-3 (centres unmarked) [Compound 7a] |  | 3.72 ± 0.45 µM | 
Cc1coc2c1C(=O)C(=O)c1c-2ccc2c1C(O)CCC2(C)C (centres unmarked) [Compound 8] |  | 2.83 ± 0.12 µM | 
Cc1coc2c1C(=O)C(=O)c1c-2ccc2c1C=CCC2(C)C [Compound 9, 1,6,6-trimethyl-6,7-dihydrophenanthro[1,2-b]furan-10,11-dione] | 61.2 ± 2.1% |  | IC50 [1]: 4.68 µM; IC50 [3]: > 10 µM
Cc1coc2c1C(=O)C(=O)c1c-2ccc2c1C=CC(O)C2(C)C (centres unmarked) [Compound 10, 7-hydroxy-1,6,6-trimethyl-6,7-dihydrophenanthro[1,2-b]furan-10,11-dione] |  | 3.1 ± 1.02 µM | IC50 [3]: > 10 µM; melting point: 185.2 to 188.5 °C
Cc1coc2c1C(=O)C(=O)c1c-2ccc2c1C=CC(=O)C2(C)C [Compound 11, 1,6,6-trimethylphenanthro[1,2-b]furan-7,10,11(6H)-trione] |  | 0.84 ± 0.26 µM | IC50 [3]: > 10 µM; melting point: 261.2 to 262.8 °C
CC1(C)C(=O)C=Cc2c1ccc1c2C(=O)C(=O)c2c(CO)coc2-1 [Compound 12, 1-(hydroxymethyl)-6,6-dimethylphenanthro[1,2-b]furan-7,10,11(6H)-trione] |  | 0.37 ± 0.02 µM | IC50 [3]: 3.85 ± 0.86 µM
Cc1coc2c1C(=O)C(=O)c1c-2ccc2c1C(=O)C=CC2(C)C [Compound 14, 1,6,6-trimethylphenanthro[1,2-b]furan-9,10,11(6H)-trione] | 52.7 ± 2.5% | ~20 µM | IC50 [3]: > 10 µM; melting point: 158.3 to 160.8 °C
CC1(C)C=CC(=O)c2c1ccc1c2C(=O)C(=O)c2c(CO)coc2-1 [Compound 15, 1-(hydroxymethyl)-6,6-dimethylphenanthro[1,2-b]furan-9,10,11(6H)-trione] | 68 ± 8.6% | ~20 µM | 
